The subject of data set [1] is MCF7. Description: Antiproliferative activity against human MCF7 cells assessed as cell proliferation after 72 hrs by MTT assay. The class given is functional. Set-up: concentration or dose not given beside the values. A general note: Formazan colour is commonly taken as a measure of viable cells.
Data set [2] deals with HepG2. Description: Antiproliferative activity against human HepG2 cells assessed as cell proliferation after 72 hrs by MTT assay. In kind it is functional. Set-up: concentration or dose not given beside the values.
In data set [3] the target is T1, Histone deacetylase (Homo sapiens) (UniProt Q13547+O15379+Q9UBN7+Q92769+Q9UQL6+Q8WUI4+Q9BY41+Q96DB2+P56524+Q9UKV0+Q969S8). The data set can be described thus: Inhibition of HDAC in human MeT-5A cells assessed as hisone H3 acetylation after 16 hrs by BRET assay. In kind it is cell-based.
Data set [4] is described as follows: Cytotoxicity against human MeT-5A cells. In kind it is cell-based.
Data set [5] deals with T1, Histone deacetylase (Homo sapiens). To be noted: HeLa, at 12.5 µM.
Description: Inhibition of human HDAC in HeLa cells nuclear extract at 12.5 uM by fluorimetric assay
Data set [6] shares this target. Description: Inhibition of HDAC in human MeT-5A cells assessed as hisone H3 acetylation at 100 uM after 16 hrs by BRET assay. In kind it is cell-based. For orientation: Bioluminescence resonance energy transfer reports proximity on the nanometre scale.
In data set [7] the target is T2, Protein deacetylase HDAC6 (Homo sapiens, UniProt Q9UBN7).
T2 sequence (Q9UBN7 whole entry): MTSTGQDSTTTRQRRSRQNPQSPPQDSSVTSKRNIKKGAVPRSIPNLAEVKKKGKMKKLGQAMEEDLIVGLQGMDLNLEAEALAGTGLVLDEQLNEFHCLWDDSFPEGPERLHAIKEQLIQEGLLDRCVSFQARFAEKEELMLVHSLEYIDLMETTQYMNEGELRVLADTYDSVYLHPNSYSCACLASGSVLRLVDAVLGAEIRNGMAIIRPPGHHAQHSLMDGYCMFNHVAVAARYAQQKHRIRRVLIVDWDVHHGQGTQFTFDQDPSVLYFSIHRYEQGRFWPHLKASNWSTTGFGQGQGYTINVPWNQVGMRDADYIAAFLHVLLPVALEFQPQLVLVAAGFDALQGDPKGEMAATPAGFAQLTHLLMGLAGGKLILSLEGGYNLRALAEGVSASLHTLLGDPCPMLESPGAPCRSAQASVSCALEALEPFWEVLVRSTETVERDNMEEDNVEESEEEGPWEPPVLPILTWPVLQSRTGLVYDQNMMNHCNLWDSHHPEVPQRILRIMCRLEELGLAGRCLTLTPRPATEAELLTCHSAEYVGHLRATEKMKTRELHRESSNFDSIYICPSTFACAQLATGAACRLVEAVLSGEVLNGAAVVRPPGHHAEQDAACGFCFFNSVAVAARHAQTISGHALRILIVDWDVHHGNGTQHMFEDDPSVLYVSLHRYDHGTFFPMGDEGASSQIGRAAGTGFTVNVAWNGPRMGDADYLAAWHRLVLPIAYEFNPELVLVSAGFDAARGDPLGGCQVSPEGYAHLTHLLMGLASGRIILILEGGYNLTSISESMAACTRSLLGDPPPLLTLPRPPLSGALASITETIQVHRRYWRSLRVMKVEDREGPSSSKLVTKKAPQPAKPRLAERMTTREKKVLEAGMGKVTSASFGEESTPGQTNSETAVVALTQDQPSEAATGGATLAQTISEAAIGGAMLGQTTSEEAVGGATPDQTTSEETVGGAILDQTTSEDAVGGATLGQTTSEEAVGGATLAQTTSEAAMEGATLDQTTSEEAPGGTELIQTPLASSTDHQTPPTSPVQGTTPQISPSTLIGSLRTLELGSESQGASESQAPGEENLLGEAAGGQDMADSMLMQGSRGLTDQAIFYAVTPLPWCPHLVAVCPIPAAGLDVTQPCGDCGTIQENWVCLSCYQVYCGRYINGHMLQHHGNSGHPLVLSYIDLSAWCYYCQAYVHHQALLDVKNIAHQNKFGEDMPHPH
The data set can be described thus: Inhibition of HDAC6 in human HeLa cells assessed as inhibition of tubulin deacetylation incubated for overnight by cELISA. The class given is cell-based.

For data set [8], the target named is Histone deacetylase 2 (Homo sapiens, UniProt Q92769). Description: Inhibition of HDAC2 (unknown origin) by fluorimetric assay.
Data set [9] is filed under the species Homo sapiens. The data set can be described thus: Selectivity index, ratio of IC50 for HDAC2 (unknown origin) to IC50 for HDAC6 (unknown origin).
For data set [10], the target named is Histone deacetylase 3 (Homo sapiens, UniProt O15379). Description: Inhibition of HDAC3 (unknown origin) by fluorimetric assay.
In data set [11] the target is T2, Protein deacetylase HDAC6. The data set can be described thus: Inhibition of HDAC6 (unknown origin) by fluorimetric assay.
The target in data set [12] is Histone deacetylase 1 (Homo sapiens, UniProt Q13547). Description: Inhibition of HDAC1 (unknown origin) by fluorimetric assay.
The species named for data set [13] is Homo sapiens. The data set can be described thus: Selectivity index, ratio of IC50 for HDAC1 (unknown origin) to IC50 for HDAC6 (unknown origin).

Molecules are shown by their SMILES. Active and inactive are the calls of the source. The calls are words filed in the database; no cut-off is given here.

What is called inhibition is the share of the control response that was lost under treatment. What is called EC50 is the concentration that produces a half-maximal response. One may read the IC50 as the point on the concentration scale where inhibition reaches its midpoint.

Sequence of Histone deacetylase 3 (O15379 whole entry): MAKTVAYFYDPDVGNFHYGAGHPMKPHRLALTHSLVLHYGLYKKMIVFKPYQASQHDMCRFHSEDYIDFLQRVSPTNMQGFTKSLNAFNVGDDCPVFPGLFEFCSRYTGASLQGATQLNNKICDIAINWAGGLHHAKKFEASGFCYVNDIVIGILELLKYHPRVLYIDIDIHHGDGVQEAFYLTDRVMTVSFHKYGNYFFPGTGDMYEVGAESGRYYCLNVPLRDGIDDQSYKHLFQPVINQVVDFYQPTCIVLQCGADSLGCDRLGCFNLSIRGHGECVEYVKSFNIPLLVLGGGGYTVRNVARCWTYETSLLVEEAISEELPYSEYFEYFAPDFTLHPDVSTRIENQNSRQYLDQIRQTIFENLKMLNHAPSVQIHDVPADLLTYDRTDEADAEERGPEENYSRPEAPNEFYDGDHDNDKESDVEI
Sequence of Histone deacetylase 1 (Q13547 whole entry): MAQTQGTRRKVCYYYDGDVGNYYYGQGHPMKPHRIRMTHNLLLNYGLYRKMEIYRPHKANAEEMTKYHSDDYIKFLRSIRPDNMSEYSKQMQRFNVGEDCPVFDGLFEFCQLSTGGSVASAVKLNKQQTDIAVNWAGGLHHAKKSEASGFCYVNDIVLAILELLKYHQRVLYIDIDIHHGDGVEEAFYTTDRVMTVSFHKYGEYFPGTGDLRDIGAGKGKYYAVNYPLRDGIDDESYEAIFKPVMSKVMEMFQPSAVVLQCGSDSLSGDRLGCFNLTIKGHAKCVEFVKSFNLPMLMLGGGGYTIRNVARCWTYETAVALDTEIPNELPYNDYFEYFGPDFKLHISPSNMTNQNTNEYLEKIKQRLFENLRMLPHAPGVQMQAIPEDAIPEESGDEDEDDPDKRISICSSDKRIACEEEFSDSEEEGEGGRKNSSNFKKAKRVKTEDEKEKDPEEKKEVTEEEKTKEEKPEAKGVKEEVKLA
Sequence of Histone deacetylase 2 (Q92769 whole entry): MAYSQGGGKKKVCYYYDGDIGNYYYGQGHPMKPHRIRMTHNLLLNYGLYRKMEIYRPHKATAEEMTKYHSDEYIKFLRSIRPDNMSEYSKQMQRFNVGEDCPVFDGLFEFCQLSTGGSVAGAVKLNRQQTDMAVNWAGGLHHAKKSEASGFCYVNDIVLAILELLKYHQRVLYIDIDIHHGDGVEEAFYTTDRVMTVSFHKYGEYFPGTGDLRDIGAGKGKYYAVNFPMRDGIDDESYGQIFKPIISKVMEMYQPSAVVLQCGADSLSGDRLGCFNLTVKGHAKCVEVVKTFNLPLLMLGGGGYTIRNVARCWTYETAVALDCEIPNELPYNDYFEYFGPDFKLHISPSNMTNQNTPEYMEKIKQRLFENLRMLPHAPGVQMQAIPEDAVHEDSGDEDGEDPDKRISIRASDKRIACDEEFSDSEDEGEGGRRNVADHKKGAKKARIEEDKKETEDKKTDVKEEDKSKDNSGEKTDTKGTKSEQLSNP

For `CC(C)(C)OC(=O)Nc1ccccc1NC(=O)CCCCCCC(=O)Nc1ccccc1NC(=O)OC(C)(C)C`, the results for the Cell proliferation in [1] and in [2] were 87% and 136%, respectively. The inhibition result in [3] was “inactive”.
Take `CC(=O)Nc1ccc(C(=O)Nc2ccccc2N)cc1` [TACEDINALINE]: the Activity entry in data set [4] is given as “Non-toxic”. Moreover, the inhibition in data set [5] turned out to be 42%.
`C=CCCC(=O)Nc1ccccc1NC(=O)OC(C)(C)C`: the Cell proliferation in data set [1] came out at 50%; in data set [2], 142%.
For the molecule `CC(C)(C)OC(=O)ON(C(=O)CCCCCCC(=O)N(OC(=O)OC(C)(C)C)C(=O)OC(C)(C)C)C(=O)OC(C)(C)C`, the Activity result was “Non-toxic” in data set [4] and 17 mU in [6]. Also, the EC50 in data set [7] worked out at 5 µM. Moreover, the IC50 in data set [8] was 29.8 µM; in data set [10] it was above 100 µM; in data set [11], 3.39 µM; in data set [12], 30.6 µM. Further, the Ratio IC50 in data set [9] and in [13] was 10 each time. In addition, the Cell proliferation in [1] is 92%; in data set [2], 108%. This molecule also gave an inhibition in [5] of 60%. The inhibition entry in data set [3] was “Active”.
`C=CCCC(=O)N(OC(=O)OC(C)(C)C)C(=O)OC(C)(C)C`: the Cell proliferation was 94% in [1] and 110% in data set [2].
As to `Nc1ccccc1NC(=O)CCCCCCC(=O)Nc1ccccc1N`, in data set [4], the Activity result is “Non-toxic”. For the same molecule, the values for the Cell proliferation in data set [1] and in data set [2] were 92% and 114%, respectively. The inhibition entry in data set [3] is “Active”.
Consider `CC(C)(C)OC(=O)Nc1ccccc1NC(=O)CC/C=C/CCC(=O)Nc1ccccc1NC(=O)OC(C)(C)C`, for which the inhibition result in [3] was “inactive”.
`O=C(CCCCCCC(=O)Nc1ccccc1)NO` [VORINOSTAT]: in data set [4], the Activity entry is “Non-toxic”.
With `CC(C)(C)OC(=O)ON(C(=O)CC/C=C/CCC(=O)N(OC(=O)OC(C)(C)C)C(=O)OC(C)(C)C)C(=O)OC(C)(C)C`, the Activity entry in [4] is listed as “Non-toxic”. The EC50 in data set [7] is 17.7 µM. Besides, the Cell proliferation in [1] is on record as 100%; in [2], 138%. The inhibition result in [3] is “inactive”.
Consider `O=C(CCCCCCC(=O)NO)NO` [SUBEROHYDROXAMIC ACID], for which the Activity entry in data set [4] was “Non-toxic”. Further, the EC50 in [7] worked out at 1.1 µM. Moreover, the IC50 in data set [10] was 62.6 µM; in data set [11], 2.03 µM. Moreover, the Cell proliferation in data set [1] is recorded as 93%; in [2], 107%.

Values taken from ChEMBL document CHEMBL3739297, “Cross metathesis with hydroxamate and benzamide BOC-protected alkenes to access HDAC inhibitors and their biological evaluation highlighted intrinsic activity of BOC-protected dihydroxamates” (Bioorg Med Chem Lett, 2016).
